Laboratory results as given in paper PMC10383195, “Interactions of the Kv1.1 Channel with Peptide Pore Blockers: A Fluorescent Analysis on Mammalian Cells” (Membranes, 2023).
Numbered stars: 1 amine (or outer) side, 2 acyl side, 3 side chain; on linkers, the order of the positions; unused ones are H or OH. Bridge positions count the residues as written; N and C are the ends. Square brackets hold non-standard residues; d marks the D form. Peptide text beside a SMILES is read from it. * marks the point of attachment. X1 = N=c1ccc2c(-c3ccccc3C(=O)*)c3ccc(N)c(S(=O)(=O)O)c3oc-2c1S(=O)(=O)O; NMeGABA = CN(CCCC(=O)[*:2])[*:1]

Experiments:
[1] = system: Kv1.1 channel; details: concentrations up to 25 nM; cited from earlier work
From the text: Ce1 is a member of the α-KTx2 subfamily of scorpion toxins and is a close homolog of the well-studied toxins HgTx1, MgTx, and noxiustoxin (NTx, Table 3). […] Thus, Ce1 surpasses the closest homolog NTx in affinity for Kv1.1, but inferiors MgTx and especially HgTx in this characteristic (Table 2).

[2] = biological target: T1, mKate2-tagged human Kv1.1 (S369T) channel (K-Kv1.1) (Homo sapiens, UniProt Q09470, S369T); assay: Competitive binding of peptide pore blocker and A-HgTx to K-Kv1.1 on the plasma membrane of Neuro2a cells (confocal microscopy); details: A-HgTx (2 nM) displacement compared in complete medium, Na+ and K+ buffers
T1 construct: these fragments were combined and amplified using terminal primers to obtain the whole mutated gene; expressed in transfected cells; host or cells: mouse neuroblastoma Neuro2a cells, transient transfection with pmKate2-KCNA1m1
Method: To analyze the binding of A-HgTx, A-HgTx (0.25–4 nM) was added to cells in a complete medium for 60 min. To analyze competitive binding, A-HgTx (2 nM), together with the selected peptide (0.05–160 nM), was added to cells in a complete medium for 60 min.
To compare ligand binding with closed and open channels, ligands were added to cells (60 min, 37 °C) in a buffer (20 mM HEPES pH 7.4, 0.9 mM CaCl2, 0.5 mM MgCl2, 0.1% BSA) supplemented with 4 mM KCl and 150 mM NaCl (Na^+ buffer) or with 150 mM KCl (K^+ buffer).
The fluorescence of the K-Kv1.1 and K-Kv1.1wt channels was excited at 561 nm and detected in the 650–700 nm region. A-HgTx fluorescence was excited at 488 nm and detected in the 495–535 nm region. Sequential scanning was used to measure the cellular distributions of A-HgTx and mKate2 fluorescence in order to avoid interference of mKate2 fluorescence with cellular autofluorescence excited at 488 nm.
Quantitative analysis of the interaction of A-HgTx with K-Kv1.1 was carried out in accordance with the procedure developed previously for A-HgTx and the fluorescently labeled Kv1.3 channel. Briefly, the regions of interest with K-Kv1.1 on the plasma membrane were selected in the confocal images and used to create binary (0;1) masks that described the membranous distribution of K-Kv1.1. The confocal images of K-Kv1.1 and A-HgTx were multiplied by the corresponding mask, and the average fluorescence intensities of A-HgTx (Ili) and K-Kv1.1 (Ici) corrected for the background signal were calculated for each i-cell. Ratio Ri = Ili/Ici was calculated and averaged over 15–20 cells to obtain the Rav value and the standard deviation.
To analyze the competitive binding of the studied peptide pore blocker and A-HgTx to K-Kv1.1 on the cellular membrane, Rav data were plotted depending on the blocker concentration (C) at the constant A-HgTx concentration (L) and fitted with the following equation:Rav(C) = Rav0/(1 + C/DC50)(3) where DC50 is the blocker concentration displacing 50% of A-HgTx from the complex with K-Kv1.1, and Rav0 is Rav at C = 0.
The apparent dissociation constant (Kap) of the complex between the studied blocker and the K-Kv1.1 channel was calculated using the Cheng–Prusoff equation:Kap = DC50/(1 + L/Kd).(4)
Two independent experiments were performed, and the Kav data were averaged and presented as mean ± SEM. Fifteen to twenty-five treated cell images were the average value for each point on the curves of A-HgTx binding to the K-Kv1.1 channel.

[3] = system: Kv1.3 channel; details: cited from earlier work
Method: Exploring the potential of this analytical system, we have measured the Kap of the complex between the recombinant peptide Ce1 and the Kv1.1 channel (Figure 8c, Table 2) and classified Ce1 as a moderately active ligand of this channel. Toxin Ce1 was found in the venom of the scorpion Centruroides elegans and characterized as a high-affinity pore blocker of the Kv1.3 channel (IC50 = 0.7 nM). Its activity for the Kv1.1 channel was not previously reported.

[4] = biological target: T2, K-Kv1.1 channel (hKv1.1S369T with mKate2) (Homo sapiens, UniProt Q09470, S369T); assay: Whole-cell patch-clamp of currents through K-Kv1.1 in Neuro2a cells; assay type: cell-based
T2 construct: these fragments were combined and amplified using terminal primers to obtain the whole mutated gene; expressed in transfected cells; host or cells: mouse neuroblastoma Neuro2a cells, transient transfection with pmKate2-KCNA1m1
Method: Membrane ion currents through the K-Kv1.1 channel were recorded at room temperature by the patch-clamp technique using the standard whole-cell configuration as described earlier.
Briefly, Neuro2a cells attached to coverslips (10 mm in diameter) pre-coated with poly-D-lysine were immersed in a buffer (140 mM NaCl, 2.8 mM KCl, 2 mM MgCl2, 2 mM CaCl2, 10 mM glucose, 10 mM HEPES, pH 7.4) and perfused continuously. Micropipettes with a tip resistance of 6–8 MΩ were filled with a pipette solution containing 140 mM KCl, 6 mM CaCl2, 2 mM MgCl2, 2 mM MgATP, 0.4 mM NaGTP, 10 mM HEPES, 20 mM BAPTA/KOH (pH 7.3). The patches were routinely held at a holding potential of −40 mV. The potential was changed from −70 to +70 mV (20 mV step) using 200 ms pulses, which were applied incrementally with an interval of 20 s. Finally, the potential returned to the holding potential.
Cells were measured 24–48 h after transfection. The cells were selected by K-Kv1.1 fluorescence. The cells were analyzed if their input resistance was more than 350 MΩ. The currents were recorded using an EPC-10 amplifier (HEKA Elektronik, Stuttgart, Germany).
[…] The toxins were dissolved in a complete medium.
The measured concentration dependence of current inhibition through the K-Kv1.1 channel by A-HgTx was analyzed with the following equation:Irel(L) = 100/(1 + (IC50/L)^h) (1) where Irel is a decrease in current (%), L is the concentration of A-HgTx, IC50 is the concentration of A-HgTx that induces a 50% decrease in current, and h is the Hill coefficient.

[5] = biological target: Kv1.3 channel; details: read-out: Kd of A-HgTx with Kv1.3 channel; cited from earlier work

T2 sequence (Q09470 whole entry S369T, the tested form may be a part): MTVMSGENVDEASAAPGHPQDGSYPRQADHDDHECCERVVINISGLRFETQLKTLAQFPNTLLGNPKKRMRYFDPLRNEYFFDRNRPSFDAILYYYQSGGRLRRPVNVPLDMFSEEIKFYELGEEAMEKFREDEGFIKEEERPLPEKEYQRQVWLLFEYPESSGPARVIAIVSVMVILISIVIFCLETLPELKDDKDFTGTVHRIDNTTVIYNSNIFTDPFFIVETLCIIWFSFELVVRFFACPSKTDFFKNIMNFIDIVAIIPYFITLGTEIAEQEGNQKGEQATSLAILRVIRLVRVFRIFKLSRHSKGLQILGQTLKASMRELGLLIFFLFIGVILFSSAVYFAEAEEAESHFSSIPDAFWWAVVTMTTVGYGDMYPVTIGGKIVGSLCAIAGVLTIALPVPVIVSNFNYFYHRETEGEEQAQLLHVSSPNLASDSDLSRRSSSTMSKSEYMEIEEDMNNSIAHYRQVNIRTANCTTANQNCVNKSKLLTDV
T1 sequence (Q09470 whole entry S369T, the tested form may be a part): as above

## noxiustoxin [NTx]
[1]
  block of the Kv1.1 channel: does not block

## CC[C@H](C)[C@H](NC(=O)[C@@H](NC(=O)[C@@H](N)[C@@H](C)O)C(C)C)C(=O)N[C@@H](CC(N)=O)C(=O)N[C@H](C(=O)N[C@@H](CCCCN)C(=O)N[C@H]1CSSC[C@@H]2NC(=O)[C@H](CCCCN)NC(=O)[C@H](C)NC(=O)CNC(=O)[C@H](C)NC(=O)[C@H](Cc3c[nH]cn3)NC(=O)[C@@H]3CCCN3C(=O)CNC(=O)[C@H](Cc3ccc(O)cc3)NC(=O)[C@H](CC(C)C)NC(=O)[C@H](CC(=O)O)NC(=O)[C@H](CCCCN)NC(=O)[C@@H]3CSSC[C@@H](C(=O)N[C@@H](Cc4ccc(O)cc4)C(=O)N[C@@H](CC(N)=O)C(=O)N[C@@H](CC(N)=O)C(=O)O)NC(=O)[C@H](CCCCN)NC(=O)[C@H](CSSC[C@H](NC(=O)[C@H](CCC(N)=O)NC(=O)[C@H](CCCCN)NC(=O)[C@@H]4CCCN4C(=O)[C@H](CO)NC(=O)[C@H]([C@@H](C)O)NC1=O)C(=O)N[C@@H](CC(C)C)C(=O)N[C@@H](CCCCN)C(=O)N1CCC[C@H]1C(=O)N3)NC(=O)[C@H](CCCCN)NC(=O)CNC(=O)[C@H](CC(N)=O)NC(=O)[C@H](CCSC)NC2=O)C(C)C [Ce1] (H-TVINVKCTSPKQCLKPCKDLYGPHAGAKCMNGKCKCYNN-OH; disulfide 7-29, 13-34, 17-36 (inferred); N-terminus and C-terminus assumed)
[2]
  effect of channel state (closed or open) on affinity of K-Kv1.1 for the peptide: does not affect the affinity
[3]
  IC50: 0.7 nM

## CC[C@H](C)[C@@H]1NC(=O)CNC(=O)[C@H](Cc2ccccc2)NC(=O)[C@H](CCC(N)=O)NC(=O)[C@H](C)NC(=O)[C@H](CCCCN)NC(=O)[C@@H]2CSSC[C@@H](C(=O)N[C@@H](Cc3ccc(O)cc3)C(=O)N3CCC[C@H]3C(=O)N[C@@H](Cc3c[nH]cn3)C(=O)O)NC(=O)[C@H](CCCCN)NC(=O)[C@@H]3CSSC[C@H](NC(=O)[C@H](CCC(N)=O)NC(=O)[C@H](CCCCN)NC(=O)[C@@H]4CCCN4C(=O)[C@H](CO)NC(=O)[C@H]([C@@H](C)O)NC(=O)[C@@H](NC(=O)[C@H](CCCCN)NC(=O)[C@@H](NC(=O)[C@H](CC(=O)O)NC(=O)[C@@H](NC(=O)[C@@H](NC(=O)[C@@H](NC(=O)CCCN(C)C(=O)c4ccccc4-c4c5ccc(=N)c(S(=O)(=O)O)c-5oc5c(S(=O)(=O)O)c(N)ccc45)[C@@H](C)O)C(C)C)[C@@H](C)CC)C(C)C)CSSC[C@H](NC(=O)[C@H](CCCCN)NC(=O)[C@H](C)NC(=O)CNC(=O)[C@H](C)NC(=O)[C@H](CCCNC(=N)N)NC1=O)C(=O)N[C@@H](CCSC)C(=O)N[C@@H](CC(N)=O)C(=O)NCC(=O)N[C@@H](CCCCN)C(=O)N3)C(=O)N[C@@H](CC(C)C)C(=O)N1CCC[C@H]1C(=O)N1CCC[C@H]1C(=O)N2 [A-HgTx] (X1-[NMeGABA]TVIDVKCTSPKQCLPPCKAQFGIRAGAKCMNGKCKCYPH-OH; disulfide 8-30, 14-35, 18-37; C-terminus assumed)
[4]; 5 nM A-HgTx, applied voltage from −30 to 70 mV
  decrease in the amplitude of the current through K-Kv1.1: ~50%
[4]; +50 mV voltage, mean ± SEM (n = 6), SEM, read-out: IC50 (concentration of A-HgTx inhibiting current by 50%)
  IC50: 4.8 ± 0.2 nM
[4]; +50 mV, A-HgTx above 15 nM
  maximum current inhibition: ca. 75%
[5]
  Kd: 0.3 ± 0.13 nM
